{"source": "patent US20230365927A1", "about": "“COMPOSITION AND METHOD FOR […] NON-NEURONAL CELLS INTO NEURONS” (INSTITUTE OF ZOOLOGY, CHINESE ACADEMY OF SCIENCES, priority 2020, published 2023)", "tested_on": "human foreskin fibroblasts (HFF1y, Beijing Stem Cell Bank)", "test": "Transdifferentiation of human foreskin fibroblasts into neurons in vitro (induction culture solution, then mature culture solution)", "assay_type": "cell-based", "settings": "for rank of gene expression level of neuronal markers (MAPT and MAP2) by myosin inhibitor in the culture solutions: induction 7 days, mature solution (with isoxazole) 7 days, Examples 8-12", "experimental": "After removing the fibronectin solution, the human foreskin fibroblasts (HFF1y, Beijing Stem Cell Bank) were evenly inoculated at 2×10^6 cells per vessel, culturing with basal medium (high glucose DMEM (Gibco, C12430500BT) plus 10% fetal bovine serum (Gibco, 16000-044)) for 12 hours. After removing the basal medium, the cells were washed with PBS.\nAn induction culture solution was added to the HFF1y vessel after undergoing the above treatment to culture for 1-7 days.\nAfter the above induction culture for 1-7 days, a mature culture solution was added to HFF1y to culture for 7-45 days.", "key": {"[1]": {"settings": "induction solution without Ble 7 days, then mature solution with ISX9 and without Ble 7 days"}}}
{"smiles": "Cc1ccc2c(c1)C(=O)[C@]1(O)CCN(c3ccccc3)C1=N2", "note": "[Ble, (−)-Blebbistatin]", "values": [{"measurement": "rank of gene expression level of neuronal markers (MAPT and MAP2) by myosin inhibitor in the culture solutions", "result": "highest"}, {"measurement": "RNA-seq, GO cluster analysis of up-regulated genes", "setting": "induction culture system comprising only Ble, p<0.05", "result": "up-regulated genes in induced cells were enriched in the neuronal fate-related pathways"}, {"measurement": "cell morphology after induction culture solution only", "setting": "induction solution 25 μM Ble, 1-7 days, no isoxazole", "result": "obvious neuronal morphology, small and round cell bodies, and rich and long synapses"}]}
{"smiles": "Cc1ccc2c(c1)C(=O)[C@]1(OC(=O)c3ccccc3)CCN(c3ccccc3)C1=N2", "note": "[Ble-OB, (−)-Blebbistatin O-Benzoate]", "values": [{"measurement": "rank of gene expression level of neuronal markers (MAPT and MAP2) by myosin inhibitor in the culture solutions", "result": "third"}]}
{"smiles": "O=C(NC1CC1)c1cc(-c2cccs2)on1", "note": "[ISX9, isoxazole 9]", "values": [{"measurement": "cell morphology (micrograph)", "setting": "[1]", "result": "do not appear neuron-like morphology"}, {"measurement": "expressions of canonical neuronal markers (GFAP, TUJ1, MAP2, MAPT, STMN1, NCAM) and synapse-related proteins (NEFH, PSD95, SYN1, SYT)", "setting": "[1]", "result": "significantly up-regulated"}, {"measurement": "gene expression of fibroblast marker FSP1", "setting": "[1]", "result": "significantly down-regulated"}, {"measurement": "gene expression of neural transcription factors (ASCL1, BRN2, NEUROD1)", "setting": "[1]", "result": "up-regulated"}]}
